Columns and labels:
[1] = target: T1, CYP2A6 (Homo sapiens, UniProt P11509); experiment: Inhibition of recombinant CYP2A6 (probe coumarin); format: in vitro ADME; conditions: recombinant isozyme; mean ± SD of triplicate; unit not given (IC50 classes in μM); read-out: IC50 towards CYP2A6
T1 sequence (P11509 1-494): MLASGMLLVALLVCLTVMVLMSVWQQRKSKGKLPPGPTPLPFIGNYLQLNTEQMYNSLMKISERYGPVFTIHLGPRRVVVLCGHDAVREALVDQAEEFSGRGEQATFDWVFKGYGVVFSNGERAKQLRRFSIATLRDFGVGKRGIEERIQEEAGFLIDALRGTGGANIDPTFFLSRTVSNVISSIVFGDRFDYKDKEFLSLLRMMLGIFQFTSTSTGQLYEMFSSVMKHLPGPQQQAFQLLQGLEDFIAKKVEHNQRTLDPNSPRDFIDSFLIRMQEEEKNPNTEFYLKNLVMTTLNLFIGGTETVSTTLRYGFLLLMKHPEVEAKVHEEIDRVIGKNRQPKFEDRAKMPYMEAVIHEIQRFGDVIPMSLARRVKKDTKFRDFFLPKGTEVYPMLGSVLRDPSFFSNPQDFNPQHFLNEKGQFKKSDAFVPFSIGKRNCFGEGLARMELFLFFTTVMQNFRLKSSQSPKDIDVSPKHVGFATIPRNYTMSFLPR
Method: (§1) In this study, phenacetin (100 μM), coumarin (100 μM), bupropion (100 μM), paclitaxel (60 μM), tolbutamide (200 μM), mephenytoin (100 μM), chlorzoxazone (200 μM) and nifedipine (40 μM) have been used as the probe substrates for CYP1A2, 2A6, 2B6, 2C8, 2C9, 2C19, 2E1 and 3A4, respectively.

[2] = Stability tests of analytes in rat plasma QC samples; format: in vitro ADME; conditions: rat plasma
Method: […] The dilution integrity was investigated by analyzing six replicate samples with each analyte, and each analyte were diluted 10-fold with blank rat matrix. Furthermore, the diluted samples were analyzed using freshly prepared calibration curve to calculate RE and RSD, which should be no more than ± 15% as criterion.

[3] = target: CYP3A4 (Homo sapiens, UniProt P08684); experiment: Inhibition of recombinant CYP3A4 (probe nifedipine); format: in vitro ADME; conditions: recombinant isozyme; mean ± SD of triplicate; unit not given (IC50 classes in μM); read-out: IC50 towards CYP3A4
Sequence of CYP3A4 (P08684 whole entry): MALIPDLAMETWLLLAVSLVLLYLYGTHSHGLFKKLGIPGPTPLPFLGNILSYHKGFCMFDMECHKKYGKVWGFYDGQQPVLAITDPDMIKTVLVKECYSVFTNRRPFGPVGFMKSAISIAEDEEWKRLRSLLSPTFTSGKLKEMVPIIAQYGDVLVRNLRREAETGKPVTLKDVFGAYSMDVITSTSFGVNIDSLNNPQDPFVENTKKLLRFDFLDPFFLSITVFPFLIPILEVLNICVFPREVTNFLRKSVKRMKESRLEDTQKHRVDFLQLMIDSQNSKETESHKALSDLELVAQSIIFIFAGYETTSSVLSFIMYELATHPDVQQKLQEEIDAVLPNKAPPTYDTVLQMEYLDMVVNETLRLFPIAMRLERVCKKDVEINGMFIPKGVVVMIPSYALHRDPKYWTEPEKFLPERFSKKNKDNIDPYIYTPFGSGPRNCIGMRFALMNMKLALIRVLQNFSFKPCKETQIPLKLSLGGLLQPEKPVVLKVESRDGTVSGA
Method: as §1

[4] = Urinary (renal) excretion in rats after a 30-min infusion of Kang-Ai injection; format: in vivo, Sprague–Dawley rats; conditions: Kang-Ai injection 6 mL/kg iv; for fraction of dose excreted unchanged via renal plus hepatobiliary excretion (sum of fe-U and fe-B): rat urine + bile, 0–12 h
Summary of the method: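 Urine collected in metabolic cages at 0–4, 4–8, 8–12 h and bile at 0–3, 3–6, 6–9, 9–12 h after infusion start, weighed and frozen at −80 °C. Non-compartmental analysis; CLR and CLB as cumulative urinary or biliary amount divided by plasma AUC0-∞, fe-U and fe-B as cumulative amount/dose; mean ± SD (n = 3).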

[5] = target: T2, UGT1A9 (Homo sapiens, UniProt O60656); experiment: Inhibition of expressed UGT1A9 (probe propofol); format: in vitro ADME; conditions: recombinant isozyme; mean ± SD of triplicate; unit not given (IC50 classes in μM); read-out: IC50 towards UGT1A9
T2 sequence (O60656 26-530): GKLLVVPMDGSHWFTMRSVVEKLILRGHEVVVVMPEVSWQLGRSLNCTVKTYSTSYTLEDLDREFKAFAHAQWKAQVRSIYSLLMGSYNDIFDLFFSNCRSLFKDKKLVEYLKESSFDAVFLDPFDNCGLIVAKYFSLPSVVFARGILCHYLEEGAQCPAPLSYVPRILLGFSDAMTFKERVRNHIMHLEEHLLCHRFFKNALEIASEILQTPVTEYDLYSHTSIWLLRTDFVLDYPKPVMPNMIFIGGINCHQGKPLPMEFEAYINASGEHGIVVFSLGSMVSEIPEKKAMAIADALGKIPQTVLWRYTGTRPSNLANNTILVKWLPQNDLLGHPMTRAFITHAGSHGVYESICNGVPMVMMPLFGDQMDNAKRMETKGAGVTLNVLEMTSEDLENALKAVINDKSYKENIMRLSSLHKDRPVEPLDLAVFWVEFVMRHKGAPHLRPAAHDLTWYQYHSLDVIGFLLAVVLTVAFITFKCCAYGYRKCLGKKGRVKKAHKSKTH
Method: After centrifugation (13,800g, 10 min), the supernatant (8 μL) was obtained for determination by UHPLC system.
Similarly, β-estradiol (60 μM), propofol (40 μM) and 4-MU (350 μM) were typically used as the substrates for UGT1A1, 1A9 and 2B7, respectively. After optimization of incubation conditions (Additional file 1: Fig. S2), the protein concentrations for UGT1A1, 1A9, and 2B7 were 0.125, 0.05, and 0.05 mg/mL, respectively.

CC(C)(O)[C@@H]1CC[C@](C)([C@H]2[C@@H](O)C[C@@]3(C)[C@@H]4C[C@H](O[C@@H]5O[C@H](CO)[C@@H](O)[C@H](O)[C@H]5O)[C@H]5C(C)(C)[C@@H](O[C@@H]6OC[C@@H](O)[C@H](O)[C@H]6O)CC[C@@]56C[C@@]46CC[C@]23C)O1 [Compound B2, Astragaloside IV]
IC50 [1]: > 100 µM
At -80 °C for 48 h, Mean±SD ([2]; nominal conc. 80 nM): 87.06 ± 0.84 nM
At -80 °C for 48 h, RE ([2]; nominal conc. 80 nM): 9.91%
Extracted samples at 8 °C for 18 h, Mean±SD ([2]; nominal conc. 80 nM): 80.76 ± 10.01 nM
Extracted samples at 8 °C for 18 h, RE ([2]; nominal conc. 80 nM): -13.07%
Short-term stability at room temperature for 6 h, Mean±SD ([2]; nominal conc. 80 nM): 82.35 ± 9.84 nM
Short-term stability at room temperature for 6 h, RE ([2]; nominal conc. 80 nM): -11.26%
Three freeze-thaw cycles (-80 °C ↔ 23 °C), Mean±SD ([2]; nominal conc. 80 nM): 88.56 ± 1.31 nM
Three freeze-thaw cycles (-80 °C ↔ 23 °C), RE ([2]; nominal conc. 80 nM): 12.35%
At -80 °C for 48 h, Mean±SD ([2]; nominal conc. 400 nM): 378.90 ± 6.78 nM
At -80 °C for 48 h, RE ([2]; nominal conc. 400 nM): -7.16%
Extracted samples at 8 °C for 18 h, Mean±SD ([2]; nominal conc. 400 nM): 376.72 ± 29.81 nM
Extracted samples at 8 °C for 18 h, RE ([2]; nominal conc. 400 nM): -10.44%
Short-term stability at room temperature for 6 h, Mean±SD ([2]; nominal conc. 400 nM): 361.42 ± 15.40 nM
Short-term stability at room temperature for 6 h, RE ([2]; nominal conc. 400 nM): -13.36%
Three freeze-thaw cycles (-80 °C ↔ 23 °C), Mean±SD ([2]; nominal conc. 400 nM): 385.93 ± 32.19 nM
Three freeze-thaw cycles (-80 °C ↔ 23 °C), RE ([2]; nominal conc. 400 nM): -12.56%
At -80 °C for 48 h, Mean±SD ([2]; nominal conc. 1600 nM): 1507.16 ± 152.79 nM
At -80 °C for 48 h, RE ([2]; nominal conc. 1600 nM): -12.08%
Extracted samples at 8 °C for 18 h, Mean±SD ([2]; nominal conc. 1600 nM): 1574.79 ± 151.38 nM
Extracted samples at 8 °C for 18 h, RE ([2]; nominal conc. 1600 nM): -11.93%
Short-term stability at room temperature for 6 h, Mean±SD ([2]; nominal conc. 1600 nM): 1463.38 ± 60.14 nM
Short-term stability at room temperature for 6 h, RE ([2]; nominal conc. 1600 nM): -11.64%
Three freeze-thaw cycles (-80 °C ↔ 23 °C), Mean±SD ([2]; nominal conc. 1600 nM): 1434.32 ± 47.18 nM
Three freeze-thaw cycles (-80 °C ↔ 23 °C), RE ([2]; nominal conc. 1600 nM): -13.10%
IC50 [3]: > 100 µM
fraction of dose excreted unchanged via renal plus hepatobiliary excretion (sum of fe-U and fe-B) [4]: about 25%
IC50 [5]: > 100 µM

CC(C)=CCC[C@](C)(O[C@@H]1O[C@H](CO)[C@@H](O)[C@H](O)[C@H]1O)[C@H]1CC[C@]2(C)[C@@H]1[C@H](O)C[C@@H]1[C@@]3(C)CC[C@H](O)C(C)(C)[C@@H]3[C@@H](O[C@@H]3O[C@H](CO)[C@@H](O)[C@H](O)[C@H]3O)C[C@]12C [Compound C6, Ginsenoside Rg1]
IC50 [1]: > 100 µM
At -80 °C for 48 h, Mean±SD ([2]; nominal conc. 40 nM): 37.29 ± 1.37 nM
At -80 °C for 48 h, RE ([2]; nominal conc. 40 nM): -10.20%
Extracted samples at 8 °C for 18 h, Mean±SD ([2]; nominal conc. 40 nM): 35.69 ± 0.56 nM
Extracted samples at 8 °C for 18 h, RE ([2]; nominal conc. 40 nM): -12.18%
Short-term stability at room temperature for 6 h, Mean±SD ([2]; nominal conc. 40 nM): 38.60 ± 1.14 nM
Short-term stability at room temperature for 6 h, RE ([2]; nominal conc. 40 nM): -6.74%
Three freeze-thaw cycles (-80 °C ↔ 23 °C), Mean±SD ([2]; nominal conc. 40 nM): 39.64 ± 2.41 nM
Three freeze-thaw cycles (-80 °C ↔ 23 °C), RE ([2]; nominal conc. 40 nM): -7.72%
At -80 °C for 48 h, Mean±SD ([2]; nominal conc. 200 nM): 209.85 ± 12.74 nM
At -80 °C for 48 h, RE ([2]; nominal conc. 200 nM): 10.34%
Extracted samples at 8 °C for 18 h, Mean±SD ([2]; nominal conc. 200 nM): 197.72 ± 17.37 nM
Extracted samples at 8 °C for 18 h, RE ([2]; nominal conc. 200 nM): 8.81%
Short-term stability at room temperature for 6 h, Mean±SD ([2]; nominal conc. 200 nM): 204.22 ± 5.64 nM
Short-term stability at room temperature for 6 h, RE ([2]; nominal conc. 200 nM): 4.83%
Three freeze-thaw cycles (-80 °C ↔ 23 °C), Mean±SD ([2]; nominal conc. 200 nM): 189.03 ± 9.20 nM
Three freeze-thaw cycles (-80 °C ↔ 23 °C), RE ([2]; nominal conc. 200 nM): -10.01%
At -80 °C for 48 h, Mean±SD ([2]; nominal conc. 800 nM): 800.01 ± 77.30 nM
At -80 °C for 48 h, RE ([2]; nominal conc. 800 nM): 11.14%
Extracted samples at 8 °C for 18 h, Mean±SD ([2]; nominal conc. 800 nM): 826.40 ± 51.24 nM
Extracted samples at 8 °C for 18 h, RE ([2]; nominal conc. 800 nM): 10.42%
Short-term stability at room temperature for 6 h, Mean±SD ([2]; nominal conc. 800 nM): 737.30 ± 34.89 nM
Short-term stability at room temperature for 6 h, RE ([2]; nominal conc. 800 nM): -11.11%
Three freeze-thaw cycles (-80 °C ↔ 23 °C), Mean±SD ([2]; nominal conc. 800 nM): 739.78 ± 39.17 nM
Three freeze-thaw cycles (-80 °C ↔ 23 °C), RE ([2]; nominal conc. 800 nM): -11.08%
IC50 [3]: > 100 µM
CL renal ([4]; male, Sprague-Dawley, urine and plasma, rat, read-out: CLR (renal excretory clearance) (converted)): 1.04 mL/min
fe-U,0–12h (fraction of dose excreted into urine) ([4]; rat urine 0–12 h): 39.79 ± 5.88%
fraction of dose excreted unchanged via renal plus hepatobiliary excretion (sum of fe-U and fe-B) [4]: ~60%
IC50 [5]: > 100 µM
